# Laboratory results from ChEMBL document CHEMBL2311470, “Heterobivalent dual-target probe for targeting GRP and Y1 receptors on tumor cells” (Bioorg Med Chem Lett, 2013).
# pIC50: −log10 of the molar value.
# Columns and labels:
# Format in all cases: cell-based
# [1] = target: T1, Neuropeptide Y receptor type 1 (Homo sapiens, UniProt P25929); experiment: Binding affinity to Y1 receptor in human SK-N-MC cells
# T1 sequence (P25929 whole entry): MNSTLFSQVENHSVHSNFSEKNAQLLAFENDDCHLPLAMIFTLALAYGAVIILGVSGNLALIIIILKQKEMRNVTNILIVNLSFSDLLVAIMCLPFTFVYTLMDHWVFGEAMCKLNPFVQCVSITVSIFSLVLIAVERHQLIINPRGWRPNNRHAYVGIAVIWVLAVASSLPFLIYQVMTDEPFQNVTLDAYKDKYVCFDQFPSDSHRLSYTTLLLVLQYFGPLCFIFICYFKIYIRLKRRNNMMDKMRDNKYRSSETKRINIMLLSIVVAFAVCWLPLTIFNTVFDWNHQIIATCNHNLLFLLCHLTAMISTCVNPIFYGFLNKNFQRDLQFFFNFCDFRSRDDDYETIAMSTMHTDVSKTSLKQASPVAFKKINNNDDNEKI
# [2] = target: T1, Neuropeptide Y receptor type 1; experiment: Displacement of [125I]-NPY from Y1 receptor in human MCF7 cells in presence of 1 uM BBN
# [3] = target: Gastrin-releasing peptide receptor (Homo sapiens, UniProt P30550); experiment: Displacement of [125I]-Tyr4-BBN from human GRPR overexpressed in human T47D cells
# Sequence of Gastrin-releasing peptide receptor (P30550 whole entry): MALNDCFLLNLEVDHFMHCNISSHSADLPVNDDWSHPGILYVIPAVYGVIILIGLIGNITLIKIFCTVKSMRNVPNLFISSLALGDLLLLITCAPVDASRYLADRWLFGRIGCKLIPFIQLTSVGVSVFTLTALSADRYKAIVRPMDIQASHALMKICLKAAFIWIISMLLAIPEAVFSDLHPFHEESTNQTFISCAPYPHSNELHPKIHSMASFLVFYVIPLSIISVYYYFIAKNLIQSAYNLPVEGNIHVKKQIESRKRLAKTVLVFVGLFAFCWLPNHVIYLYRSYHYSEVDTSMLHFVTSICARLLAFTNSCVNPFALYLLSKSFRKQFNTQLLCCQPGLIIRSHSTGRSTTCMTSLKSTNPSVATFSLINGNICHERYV
smiles,measurement,setting,value
CC[C@H](C)[C@H](N)C(=O)N[C@@H](CC(N)=O)C(=O)N1CCC[C@H]1C(=O)N[C@@H](CCCCNC(=O)COCCOCCNC(=O)[C@H](CCCCNC(=O)COCC(=O)NCCOCCOCC(=O)NCC(=O)Nc1ccc(C(=O)N[C@@H](CCC(N)=O)C(=O)N[C@@H](Cc2c[nH]c3ccccc23)C(=O)N[C@@H](C)C(=O)N[C@H](C(=O)NCC(=O)N[C@@H](Cc2cnc[nH]2)C(=O)N[C@@H](CC(C)C)C(=O)N[C@@H](CCSC)C(N)=O)C(C)C)cc1)NC(=O)CN1CCN(CC(=O)O)CCN(CC(=O)O)CCN(CC(=O)O)CC1)C(=O)N[C@@H](Cc1ccc(O)cc1)C(=O)N[C@@H](CCCN=C(N)N)C(=O)N[C@@H](CC(C)C)C(=O)N[C@@H](CCCN=C(N)N)C(=O)N[C@@H](Cc1ccc(O)cc1)C(N)=O,pIC50,[1],7.13
same,pIC50,[2],7.10
same,pIC50,[3],7.74
